Laboratory results: patent publication US20220133702A1, “CYSTIC FIBROSIS TRANSMEMBRANE CONDUCTANCE REGULATOR MODULATORS FOR TREATING AUTOSOMAL DOMINANT POLYCYSTIC KIDNEY DISEASE” (The Johns Hopkins University, priority 2020, published 2022)

Key:
GRP78, Ero1, and GADD153 = assay: Western blot of ER stress markers in kidney tissue lysates; assay type: in vivo, mouse; settings: 30 mg/kg BW, cyst-induced mice
Description: FIG. 11A. FIG. 11B, FIG. 11C, FIG. 11D, and FIG. 11E show expression of ER stress markers GRP78, Ero1, and GADD in Pkd1-1 mice treated with VX-809. (FIG. 11A & FIG. 11D) Representative Western blot images of GRP78, ErO1, and GADD in lysates of kidney tissue from no cyst induced (ND), cyst induced with doxycycline (D) or cyst induced pkd−/− mice treated with VX-809 (D+VX-809) 30 mg/kg BW. (FIG. 11B, FIG. 11C and FIG. 11E) Columns represent averages±standard errors of GRP78, Ero1, and GADD153 expression. Data were analyzed by non-parametric t-test. n=4 for each treated and control groups. Black lines between lanes represent representative experiments from the same gel but loaded in different lanes. **P<0.01, ***P<0.001;
(§1) Given that VX-809 alters an ensemble of Hsps, it was evaluated whether VX-809 alters proteins associated with ER stress. To address this question, the levels of three ER stress-associated proteins were measured, 78-kDa glucose-regulated protein (GRP78), ER oxidoreductin 1 (Ero1) and DNA damage-inducible protein 3 (GADD153), also known as C/EBP homologous protein (CHOP) (37). The results are depicted in FIG. 11 show no changes in GRP78 or Ero1 in response to VX-809.

GADD153 = GADD153 immunostaining of kidney sections; assay type: in vivo; settings: PN21 mouse kidney sections, vs DMSO
Text: FIG. 12A, FIG. 12B, and FIG. 12C show GADD153 expression in kidneys of Pkd1fllfl; Pax8^rtTA; TetO-cre mice. Immunofluorescence images representing the GADD expression (green) in DMSO (FIG. 12A) or VX-809 (FIG. 12B) treated PN21 Pkd1^fl/fl mouse. Columns (FIG. 12C) represent % area of GADD immunopositive (green) cells in DMSO or VX-809 treated PN21 Pkd1^fl/fl mouse kidney sections. Data are expressed as mean±1 SEM of DMSO (vehicle)-treated (n=4) and VX-809-treated (n=4) mice. Statistical analysis was performed using a 2-tailed Student t-test. DMSO, dimethyl sulfoxide. Kidneys were fixed in 4% paraformaldehyde as described (62). Used here was the GADD153 antibody (Sc-7351), goat antirabbit (A21429, AlexaFluor 555, 1:1,000; Life Technologies, Carlsbad, Calif.) and DAPI (H-1200; Vector Laboratories, Burlingame, Calif.). Pictures were acquired with a Zeiss microscope equipped a 20× objective. Cells positive for GADD153 and the total number of cells were measured with ImageJ. The results are expressed as percentages;
as §1, with “The results are depicted in FIG. 11 show no changes in GRP78 or Ero1 in response to VX-809.” left out

PC2 in PN cells = assay: Western blot of endogenous PC2; assay type: cell-based, mouse
Description: FIG. 6A and FIG. 6B show PC2 expression is unchanged by VX-809. (FIG. 6A) Western blot showing expression of PC2 in treated or control cells. (FIG. 6B) Columns represent the means±SEM of the PC2 expression. The data were analyzed by non-parametric t-test. The experiment was repeated six (control) or seven times;
PC2 is a 968-amino acid protein with an approximate molecular weight of 100 kDa in its monomeric form To determine whether VX-809 affects PC2 protein expression, western blot experiments were conducted on PN cells to determine the resting levels of endogenous PC2. The results indicated (FIG. 6) that VX-809 has no effect on PC2 expression.

[1] = tested on: caspase 3 activity in PN cells; assay: EnzChek Caspase-3 assay (apoptosis); assay type: cell-based, mouse; settings: 16 h
Description: Apoptosis was measured using the EnzChek Caspase-3 Assay Kit (Invitrogen #E13184). Cells were treated either with VX-809 or with DMSO at indicated concentrations for 16 h or left untreated (control). Both treated and control cells were then harvested, lysed, and assayed as described in the manufacturer's protocol. Reactions were carried out at room temperature, and fluorescence was measured in a fluorescence microplate reader (SpectraMax M3), with excitation at 496 nm and emission detection at 520 nm. Background fluorescence, determined for a no-enzyme control, has been subtracted from each value. Ac-DEVD-CHO was used as an inhibitor control (Inh-cntr1) to confirm the correlation between signal detection and caspase3-like protease activity. Data were analyzed using one-way and ANOVA multiple comparisons. n=4-5. ****P<0.0001;
Apoptosis is associated with the absence of PC1 in ADPKD. To assess whether apoptosis is directly altered by VX-809, caspase 3 activity was monitored in PN cells.

CFTR = assay: Confocal localization of CFTR with ER, Golgi and PM markers; assay type: cell-based; settings: treated vs control cells, Pearson's correlation with markers
Text: FIG. 18A and FIG. 18B show images of confocal microscopy localization studies of CFTR and localization markers in control and treated cells (FIG. 18A) and graphs showing Pearson's correlation coefficient for CFTR and localization markers in control and VX-809 treated cells (FIG. 18B).
The localization of PC2 and CFTR in control cells was compared to the localization of PC2 and CFTR localization in VX-809 treated cells.

PN cells = assay: BrdU cell proliferation assay; assay type: cell-based, mouse; settings: 1 and 10 μM, vs DMSO-treated cells
Text: FIG. 3A, FIG. 3B, FIG. 3C, and FIG. 3D show cell proliferation is reduced by VX-809. (FIG. 3A-FIG. 3B) Proliferation in kidneys of Pkd1^fl/fl; Pax8^rtTA; TetO-cre mice. Representative images of Ki67 (a cellular marker for proliferation) staining of PN21 kidney sections from DMSO- and VX-809-treated mice. Arrows indicate Ki67-positive cells. Pictures were acquired with a Zeiss microscope equipped with 20× objective. (FIG. 3C) Summary data for Ki67-positive cells. Columns represent averages±standard errors of DMSO (vehicle)-treated (n=3) and VX-809-treated (n=3) mice. Statistical analysis was performed using a two-tailed Student's t test. (FIG. 3D) Proliferation in PN cells. PN cells were treated with VX-809 or DMSO). The bromodeoxyuridine (BrdU) concentration in the cells was measured by using a BrdU cell proliferation assay kit (Millipore Sigma#2750) according to the manufacturer's protocol. Columns represent averages±SEs of the OD of BrdU at 450/550 […]. Data were analyzed using Student's t-test, with n=5-7. Methods were described previously (62). *P>0.05; **P<0.01;
A hallmark of the cysts in ADPKD is an increase in proliferation in response to cAMP. Therefore, it was determined whether VX-809 would affect proliferation.

Cc1ccc(NC(=O)C2(c3ccc4c(c3)OC(F)(F)O4)CC2)nc1-c1cccc(C(=O)O)c1 [VX-809, lumacaftor]
Ero1 level (GRP78, Ero1, and GADD153): no changes
GADD153 level (GRP78, Ero1, and GADD153): equally dramatic reduction
GRP78 level (GRP78, Ero1, and GADD153): no changes
GADD153 immunostaining (GADD153): strong reduction
PC2 expression (PC2 in PN cells): no effect
caspase 3 activity [1]: small reduction
CFTR localization (CFTR): statistically significant move of CFTR from the ER to Basolateral and Apical Membrane
cell proliferation (BrdU) (PN cells): significantly inhibit cell proliferation
